According to patent US12201679B2, “Epitope-targeted peptide immunostimulants” (priority 2019, dated 2025):
Read-outs that look alike come from different tables or passages of the source. Bridge positions count the residues as written; N and C are the ends. Square brackets hold non-standard residues; d marks the D form. Triazole bridges read from a SMILES are 1,4-linked. Peptide text beside a SMILES is read from it. * marks the point of attachment. Biotin = O=C1N[C@H]2[C@H](CS[C@H]2CCCCC(=O)*)N1; PEG10 = NCCOCCOCCOCCOCCOCCOCCOCCOCCOCCOCCC(=O)O; Lys(N3) = [N-]=[N+]=NCCCC[C@H](N)C(=O)O; Orn(N3) = [N-]=[N+]=NCCC[C@H](N)C(=O)O; Phe(4-F) = N[C@@H](Cc1ccc(F)cc1)C(=O)O; PEG5 = NCCOCCOCCOCCOCCOCCC(=O)O; Pra = C#CC[C@H](N)C(=O)O

Experiments:
[1] = biological target: full-length recombinant MrkA protein (Klebsiella pneumoniae, UniProt P12267); assay type: binding; settings: for affinities to MrkA: ELISA, stated as 'likely'; for binding to full-length MrkA compared to cy(LLFFF): sandwich ELISA, alanine scan and analogues
From the text: HPraGly is present before X1 in each peptide and Az4 follows X5 in each peptide.

[2] = Isocratic point, elution from C18 prep-scale column; assay type: physicochemical; settings: elution from C18 column
Description: PCC compounds were purified on a Waters Autopurification system, which isolated compounds based on MS peaks corresponding to protonated [M+1H]^+ and [M+2H]^2+, and/or sodium adducts [M+Na]^+ and [M+2Na]^2+. The isocratic points of PCCs were determined based on the elution of the compound from a C18 prep-scale column. Synthetic epitopes were either purified on the Waters Autopurification System, or by semi-preparative HPLC and then using matrix-assisted laser desorption/ionization mass spectroscopy to identify fractions with the desired m/z ratio. The resulting peptides were lyophilized, the yield determined by mass difference or UV-visible absorbance, and resuspended at a concentration of up to 10 mM peptide in DMSO. Peptides were stored at −80° C. before thawing for each use.

| Compound | Relative affinity (ratio of ELISA signal versus cy(LLFFF)) ([1]; ELISA 2, [MrkA] 25 nM) | Isocratic point (%) [2] | binding to full-length MrkA compared to cy(LLFFF) [1] | also measured |
| --- | --- | --- | --- | --- |
| CC(C)C[C@@H]1NC(=O)[C@@H](NC(=O)CCOCCOCCOCCOCCOCCOCCOCCOCCOCCOCCNC(=O)CCCC[C@@H]2SC[C@@H]3NC(=O)N[C@@H]32)Cc2cn(nn2)CCCC[C@@H](C(N)=O)NC(=O)[C@H](Cc2ccccc2)NC(=O)[C@H](Cc2ccccc2)NC(=O)[C@H](Cc2ccccc2)NC(=O)[C@H](CC(C)C)NC1=O [Ref. compound] ({Biotin-PEG10}-[Pra]LLFFF[Lys(N3)]-NH2; triazole 1-7) | 1.00 | – | – | Relative affinity (ratio of ELISA signal versus cy(LLFFF)) ([1]; ELISA 1, [MrkA] for ELISA N/A): 1.00; Relative affinity (ratio of ELISA signal versus cy(LLFFF)) ([1]; ELISA 3, [MrkA] 50 nM): 1.00; Relative affinity (ratio of ELISA signal versus cy(LLFFF)) ([1]; ELISA 4, [MrkA] 100 nM): 1.00; Relative affinity (ratio of ELISA signal versus cy(LLFFF)) ([1]; ELISA 5, [MrkA] 25 nM): 1.00; Relative affinity (ratio of ELISA signal versus cy(LLFFF)) ([1]; ELISA 6, [MrkA] 25 nM): 1.00; Isocratic point (%) ([2]; N-terminal tag Bio-Peg10-peg10-): 74.53%; Isocratic point (%) ([2]; N-terminal tag Bio-peg5-): 78.85%; Isocratic point (%) ([2]; N-terminal tag Bio-peg10-): 75.88% |
| CC(C)C[C@@H]1NC(=O)[C@H](C)NC(=O)[C@@H](NC(=O)CCOCCOCCOCCOCCOCCOCCOCCOCCOCCOCCNC(=O)CCCC[C@@H]2SC[C@@H]3NC(=O)N[C@@H]32)Cc2cn(nn2)CCCC[C@@H](C(N)=O)NC(=O)[C@H](Cc2ccccc2)NC(=O)[C@H](Cc2ccccc2)NC(=O)[C@H](Cc2ccccc2)NC1=O [compound 2] ({Biotin-PEG10}-[Pra]ALFFF[Lys(N3)]-NH2; triazole 1-7) | 0.53 | 65.55% | – | – |
| CC(C)C[C@@H]1NC(=O)[C@@H](NC(=O)CCOCCOCCOCCOCCOCCOCCOCCOCCOCCOCCNC(=O)CCCC[C@@H]2SC[C@@H]3NC(=O)N[C@@H]32)Cc2cn(nn2)CCCC[C@@H](C(N)=O)NC(=O)[C@H](Cc2ccccc2)NC(=O)[C@H](Cc2ccccc2)NC(=O)[C@H](Cc2ccccc2)NC(=O)[C@H](C)NC1=O [compound 3] ({Biotin-PEG10}-[Pra]LAFFF[Lys(N3)]-NH2; triazole 1-7) | 0.26 | 66.00% | – | – |
| CC(C)C[C@@H]1NC(=O)[C@H](CC(C)C)NC(=O)[C@@H](NC(=O)CCOCCOCCOCCOCCOCCOCCOCCOCCOCCOCCNC(=O)CCCC[C@@H]2SC[C@@H]3NC(=O)N[C@@H]32)Cc2cn(nn2)CCCC[C@@H](C(N)=O)NC(=O)[C@H](Cc2ccccc2)NC(=O)[C@H](Cc2ccccc2)NC(=O)[C@H](C)NC1=O [compound 4] ({Biotin-PEG10}-[Pra]LLAFF[Lys(N3)]-NH2; triazole 1-7) | 0.59 | 70.97% | – | – |
| CC(C)C[C@@H]1NC(=O)[C@@H](NC(=O)CCOCCOCCOCCOCCOCCOCCOCCOCCOCCOCCNC(=O)CCCC[C@@H]2SC[C@@H]3NC(=O)N[C@@H]32)Cc2cn(nn2)CCCC[C@@H](C(N)=O)NC(=O)[C@H](Cc2ccccc2)NC(=O)[C@H](C)NC(=O)[C@H](Cc2ccccc2)NC(=O)[C@H](CC(C)C)NC1=O [compound 5] ({Biotin-PEG10}-[Pra]LLFAF[Lys(N3)]-NH2; triazole 1-7) | 0.10 | 66.00% | – | – |
| CC(C)C[C@@H]1NC(=O)[C@@H](NC(=O)CCOCCOCCOCCOCCOCCOCCOCCOCCOCCOCCNC(=O)CCCC[C@@H]2SC[C@@H]3NC(=O)N[C@@H]32)CCCCn2cc(nn2)C[C@@H](C(N)=O)NC(=O)[C@H](C)NC(=O)[C@H](Cc2ccccc2)NC(=O)[C@H](Cc2ccccc2)NC(=O)[C@H](CC(C)C)NC1=O [compound 6] ({Biotin-PEG10}-[Lys(N3)]LLFFA[Pra]-NH2; triazole 1-7) | 0.04 | 64.43% | – | – |
| C[C@@H]1NC(=O)[C@H](C)NC(=O)[C@@H](NC(=O)CCOCCOCCOCCOCCOCCOCCOCCOCCOCCOCCNC(=O)CCCC[C@@H]2SC[C@@H]3NC(=O)N[C@@H]32)Cc2cn(nn2)CCCC[C@@H](C(N)=O)NC(=O)[C@H](Cc2ccccc2)NC(=O)[C@H](Cc2ccccc2)NC(=O)[C@H](Cc2ccccc2)NC1=O [compound 7] ({Biotin-PEG10}-[Pra]AAFFF[Lys(N3)]-NH2; triazole 1-7) | – | 54.65% | – | Relative affinity (ratio of ELISA signal versus cy(LLFFF)) ([1]; ELISA 3, [MrkA] 50 nM): 0.15 |
| CC(C)C[C@@H]1NC(=O)[C@@H](NC(=O)CCOCCOCCOCCOCCOCCOCCOCCOCCOCCOCCNC(=O)CCCC[C@@H]2SC[C@@H]3NC(=O)N[C@@H]32)Cc2cn(nn2)CCCC[C@@H](C(N)=O)NC(=O)[C@H](Cc2ccccc2)NC(=O)[C@H](Cc2ccccc2)NC(=O)[C@H](Cc2ccccc2)NC1=O [compound 8] ({Biotin-PEG10}-[Pra]LFFF[Lys(N3)]-NH2; triazole 1-6) | – | 61.84% | – | Relative affinity (ratio of ELISA signal versus cy(LLFFF)) ([1]; ELISA 3, [MrkA] 50 nM): 0.46 |
| CC(C)C[C@@H]1NC(=O)[C@@H](NC(=O)CCOCCOCCOCCOCCOCCOCCOCCOCCOCCOCCNC(=O)CCCC[C@@H]2SC[C@@H]3NC(=O)N[C@@H]32)Cc2cn(nn2)CCC[C@@H](C(N)=O)NC(=O)[C@H](Cc2ccccc2)NC(=O)[C@H](Cc2ccccc2)NC(=O)[C@H](Cc2ccccc2)NC(=O)[C@H](CC(C)C)NC1=O [compound 10] ({Biotin-PEG10}-[Pra]LLFFF[Orn(N3)]-NH2; triazole 1-7) | – | 76.89% | – | Relative affinity (ratio of ELISA signal versus cy(LLFFF)) ([1]; ELISA 3, [MrkA] 50 nM): 0.89 |
| CC(C)C[C@@H]1NC(=O)[C@@H](NC(=O)CCOCCOCCOCCOCCOCCOCCOCCOCCOCCOCCNC(=O)CCCC[C@@H]2SC[C@@H]3NC(=O)N[C@@H]32)Cc2cn(nn2)CCCC[C@@H](C(N)=O)NC(=O)[C@H](Cc2ccc(F)cc2)NC(=O)[C@H](Cc2ccccc2)NC(=O)[C@H](Cc2ccccc2)NC(=O)[C@H](CC(C)C)NC1=O [compound 11] ({Biotin-PEG10}-[Pra]LLFF[Phe(4-F)][Lys(N3)]-NH2; triazole 1-7) | – | 75.53% | – | Relative affinity (ratio of ELISA signal versus cy(LLFFF)) ([1]; ELISA 3, [MrkA] 50 nM): 0.88 |
| C[C@@H](O)[C@@H]1NC(=O)[C@@H](NC(=O)CCOCCOCCOCCOCCOCCNC(=O)CCCC[C@@H]2SC[C@@H]3NC(=O)N[C@@H]32)Cc2cn(nn2)CCCC[C@@H](C(N)=O)NC(=O)[C@H](Cc2ccccc2)NC(=O)[C@H](Cc2ccccc2)NC(=O)[C@H](Cc2ccccc2)NC(=O)[C@H]([C@@H](C)O)NC1=O [compound 13] ({Biotin-PEG5}-[Pra]TTFFF[Lys(N3)]-NH2; triazole 1-7) | – | 53.40% | – | Relative affinity (ratio of ELISA signal versus cy(LLFFF)) ([1]; ELISA 4, [MrkA] 100 nM): 0.04 |
| CC(C)C[C@@H]1NC(=O)[C@@H](NC(=O)CCOCCOCCOCCOCCOCCOCCOCCOCCOCCOCCNC(=O)[C@H](CCCNC(=N)N)NC(=O)[C@H](CCCNC(=N)N)NC(=O)[C@H](CCCNC(=N)N)NC(=O)CCOCCOCCOCCOCCOCCOCCOCCOCCOCCOCCNC(=O)CCCC[C@@H]2SC[C@@H]3NC(=O)N[C@@H]32)Cc2cn(nn2)CCCC[C@@H](C(N)=O)NC(=O)[C@H](Cc2ccccc2)NC(=O)[C@H](Cc2ccccc2)NC(=O)[C@H](Cc2ccccc2)NC(=O)[C@H](CC(C)C)NC1=O [compound 16] ({Biotin-PEG10}-RRR[PEG10][Pra]LLFFF[Lys(N3)]-NH2; triazole 5-11) | – | 45.02% | – | Relative affinity (ratio of ELISA signal versus cy(LLFFF)) ([1]; ELISA 5, [MrkA] 25 nM): 0.90 |
| CC(C)C[C@@H]1NC(=O)[C@H](CCCNC(=N)N)NC(=O)[C@H](Cc2c[nH]cn2)NC(=O)[C@H](C(C)C)NC(=O)CNC(=O)[C@@H](NC(=O)CCOCCOCCOCCOCCOCCNC(=O)CCCC[C@@H]2SC[C@@H]3NC(=O)N[C@@H]32)Cc2cn(nn2)CCCC[C@@H](C(N)=O)NC1=O [cy(GVHRL)] ({Biotin-PEG5}-[Pra]GVHRL[Lys(N3)]-NH2; triazole 1-7) | – | – | lower affinities | affinities to MrkA [1]: ~1 µM |
| C[C@@H](O)[C@@H]1NC(=O)[C@@H](NC(=O)CCOCCOCCOCCOCCOCCNC(=O)CCCC[C@@H]2SC[C@@H]3NC(=O)N[C@@H]32)Cc2cn(nn2)CCCC[C@@H](C(N)=O)NC(=O)[C@H](Cc2ccccc2)NC(=O)[C@H](Cc2ccccc2)NC(=O)[C@H](Cc2ccccc2)NC(=O)[C@H]([C@@H](C)O)NC1=O [cy(TTFFF)] ({Biotin-PEG5}-[Pra]TTFFF[Lys(N3)]-NH2; triazole 1-7; N-terminus assumed) | – | – | lower affinities | affinities to MrkA [1]: ~1 µM |
| CC(C)C[C@@H]1NC(=O)[C@H](Cc2c[nH]cn2)NC(=O)[C@H](CCCNC(=N)N)NC(=O)[C@H](Cc2ccc(O)cc2)NC(=O)[C@@H](NC(=O)CCOCCOCCOCCOCCOCCNC(=O)CCCC[C@@H]2SC[C@@H]3NC(=O)N[C@@H]32)Cc2cn(nn2)CCCC[C@@H](C(N)=O)NC(=O)CNC1=O [cy(YRHLG)] ({Biotin-PEG5}-[Pra]YRHLG[Lys(N3)]-NH2; triazole 1-7) | – | – | lower affinities | affinities to MrkA [1]: ~1 µM |
| cy(ALFFF) (cyclic) | – | – | Modestly lower binding | – |
| cy(LAFFF) (cyclic) | – | – | Modestly lower binding | – |
| cy(LLAFF) (cyclic) | – | – | Modestly lower binding | – |
